Experimental data taken from patent US20210032369A1, “METHODS RELATED TO PARKINSON?S DISEASE AND SYNUCLEINOPATHIES” (The Scripps Research Institute, priority 2018, published 2021).

System: Pα-syn* aggregates in PFF-seeded primary hippocampal neurons
Assay: Autophagy modulation assay: Pα-syn* aggregates in PFF-seeded primary hippocampal neurons
Format: cell-based, mouse
Conditions: treated from day 3.5 to day 6 post-PFF exposure, rapamycin 300 nM, chloroquine 1 μM, 3-Methyladenine 1 mM, 200 cells counted blinded, versus vehicle
Experimental: Primary neuronal cultures and PFFs seeding: Primary neuronal cultures were prepared from E16-E18 C57BL/6 mouse brains (Charles River Laboratories) using standard procedures. For immunofluorescence experiments, dissociated hippocampal neurons were plated onto poly-L-lysine coated glass coverslips placed in 24-well plates, at a cell density of 125,000 cells/well. For biochemical assays, dissociated cortical neurons were plated onto poly-L-lysine-coated 6-well plates at a cell density of 1,000,000 cells/well. Neuronal cultures were seeded with PFFs at 5-6 days in vitro (DIV). […] Just before seeding, PFFs were diluted in PBS at 0.1 mg/ml, sonicated during 30 sec (0.5 sec ON, 0.5 sec OFF, power 30%), and diluted in neuronal media. Two μg/ml PFFs (final) per well were added on 24-well plates for immunofluorescence experiments, and 4 μg/ml PFFs (final) per well were added to 6-well plates for biochemical assays. In the case of control conditions, an equivalent volume of PBS was added to the neuronal cultures. Autophagy modulation assays: Dissociated hippocampal neurons were plated onto poly-L-lysine coated glass coverslips placed in 24-well plates, at a cell density of 125,000 cells/well and seeded with PFFs (or equivalent volume of PBS for the control) at 5-6 DIV. […] Thereafter, neuronal cultures were grown for an extra 2.5 days until a total of 6 days after PFF seeding, were fixed and processed for immunofluorescence. In order to assess the effect of autophagy modulation on Pα-syn* generation, a total of 200 cells per treatment were evaluated and the number of Pα-syn* aggregates per cells was counted in a blinded fashion at 100× magnification. Immunofluorescence experiments: Neurons were fixed for 30 min at room temperature with 4% (w/v) paraformaldehyde in PBS containing 4% (w/v) sucrose. Neurons were washed with PBS, permeabilized with 0.2% (v/v) Triton X-100 in PBS for 6 min, washed again in PBS and blocked for 1 hour at room temperature. […]

| SMILES | number of Pα-syn* aggregates per cell | number of Pα-syn* aggregates per cell (listed as 3-MA) |
| --- | --- | --- |
| Cn1cnc(N)c2ncnc1-2 [3-Methyladenine] | decrease | fewer |
| CCN(CC)CCCC(C)Nc1ccnc2cc(Cl)ccc12 (stereo not drawn) [chloroquine] | fewer |  |
